Data as given in paper PMC12458545, “Repurposing a Detrimental Antibody Epitope as Targeted Therapeutics for Sepsis and Rheumatoid Arthritis” (Research Square, 2025).
“Also recorded” adds a separate entry of the source.

Columns and labels:
[1] = tested on: CAIA-induced mechanical allodynia; assay: CAIA pain sensitivity, Von Frey filaments; assay type: in vivo, Balb/C mice; conditions: P2–1 i.p. daily Day 6 to Day 9; 50% paw withdrawal threshold, up-down method
Experimental: (§1) The CAIA model was performed in Balb/C mice (8–10 weeks old) as described previously. On Day 0, mice received i.p. injection of 2 mg anti-collagen II mAb cocktail (α-II, Chondrex, Inc., Redmond, WA). On Day 3, mice received i.p. injection of 30 μg LPS (Escherichia coli O111:B4; Sigma-Aldrich) to activate inflammation and synchronize arthritis onset. Mice were randomized, and therapeutic agents (P2–1 peptide or pCTS-L-neutralizing mAb2) were administered i.p. daily from Day 6 to Day 9. Arthritis severity was scored daily using a clinical scoring system [0 – 4 per paw: 0 = normal; 1 = mild redness and swelling in a single joint type (ankle, wrist, or individual digits); 2 = moderate redness and swelling affecting two joint types; 3 = severe redness and swelling involving across all three joint types; 4 = maximal redness and swelling of the entire paw that obscured joint definition].
Mechanical allodynia was assessed using Von Frey filaments (Stoelting Co., Wood Dale, IL) applied to the plantar surface of the hind paws as previously described,[82]. Mice were habituated in individual transparent enclosures on an elevated wire mesh platform. […] The “up-down” method determined the 50% paw withdrawal threshold, defined as the force required to elicit a withdrawal response in 50% of applications.

[2] = tested on: collagen antibody-induced arthritis (CAIA); assay: CAIA arthritis severity clinical score; assay type: in vivo, Balb/C mice; conditions: P2–1 i.p. daily Day 6 to Day 9; male and female mice; vs. saline vehicle
Experimental: as §1

CLP-induced sepsis = assay: CLP sepsis survival; assay type: in vivo, Balb/C mice
Experimental: Experimental sepsis was induced in Balb/C mice via cecal ligation and puncture (CLP) as previously described,[30],[37]. […] Briefly, mice were anesthetized intramuscularly with ketamine (75 mg/kg, Henry Schein Animal Health, Dublin, Ohio) and xylazine (10 mg/kg, Sigma-Aldrich) before a midline abdominal incision was made in the lower left abdomen. The cecum was ligated with a 4–0 silk suture at 50% of its length from the distal end, and punctured twice with a 21-gauge needle to induce moderate to severe sepsis. The cecum was returned to the abdominal cavity, and the incision was closed in layers. Approximately 30 min post-CLP, animals received imipenem/cilastatin (0.5 mg/mouse, Primaxin, Merck & Co., Inc.) and 1.0 mL of sterile saline for fluid resuscitation. Animals were randomized to control vehicle and experimental groups, administered P2 or P2–1 intraperitoneally at indicated doses and time points, and monitored for survival rates. To elucidate P2–1’s protective mechanisms, a separate group of Balb/C mice underwent CLP and received P2–1 (1.0 mg/kg) at 2 h and 20 h post-CLP. At 24 h post-CLP, animals were euthanized to collect blood and measure serum cytokines and chemokines using murine Cytokine Antibody Arrays.
All data were first assessed for normality using the Shapiro-Wilk test before applying the appropriate statistical analyses. All data are presented as mean ± standard error of the mean (SEM) unless otherwise specified. For comparison among multiple groups with non-normal (skewed) distribution, the Kruskal-Wallis ANOVA test followed by Dunn’s post-hoc test was used to evaluate statistical differences. Survival curves were analyzed using Kaplan-Meier method and compared using the nonparametric log-rank (Mantel-Cox) test. Statistical significance was defined as a P value less than 0.05.

human PBMCs = assay: RNA-seq of HMGB1-stimulated PBMCs; assay type: cell-based; conditions: for other HMGB1-induced gene expression (cytokines, chemokines) (words): P2–1 5.0 or 10.0 μg/ml with HMGB1
Experimental: Human blood was purchased from the New York Blood Center (Long Island City, NY, USA), and PBMCs were isolated by density gradient centrifugation through Ficoll (Ficoll-Paque PLUS) as previously described,[30]. PBMCs were cultured in RPMI-1640 supplemented with 10% human serum, 2 mM L-glutamine, 100 U/mL penicillin, and 100 μg/mL streptomycin (all from Invitrogen). For experiments, PBMCs were stimulated with recombinant human HMGB1 (0.5 or 2.0 μg/ml) for 16 hours, either alone or in combination with P2–1 at 5.0 or 10.0 μg/ml. Cell-free supernatants were collected for analysis of cytokines/chemokines levels by Cytokine Antibody Arrays, or pCTS-L levels by Western blotting analysis as described.
Total RNA was isolated from human PBMCs stimulated with HMGB1 in the absence or presence of P2–1 (5.0 or 10.0 μg/ml) using the RNeasy Mini Kit (Qiagen) according to the manufacturer’s instructions. RNA quantity and quality were assessed using a NanoDrop spectrophotometer and an Agilent Bioanalyzer. cDNA libraries were prepared using the TruSeq RNA Library Prep Kit v2 (Illumina) and sequenced on an Illumina NovaSeq 6000 platform to generate 100 bp paired-end reads. Raw sequencing reads were quality-checked using FastQC, trimmed with Trimmomatic, and aligned to the human reference genome (GRCh38) using HISAT2. Gene counts were quantified using StringTie and DESeq2 was used for differential gene expression analysis. Volcano plots and heatmaps were generated using ggplot2 and pheatmap packages in R, respectively. Genes with an adjusted P-value < 0.05 and a |log2-fold change| > 1 were considered differentially expressed.

[3] = tested on: CAIA-induced joint tissue cytokines and chemokines; assay: CAIA joint tissue inflammation, Cytokine Antibody Arrays; assay type: in vivo, Balb/C mice; conditions: P2–1, harvested Day 10; for joint tissue inflammation (array overall): representative arrays, four vehicle- and four P2-1-treated mice
Experimental: as §1
Levels of cytokines and chemokines in mouse serum and joint tissue lysates, or human PBMC culture supernatants were determined using murine or human Cytokine Antibody Arrays (e.g., Cat. No. M0308003 or Cat. No. AAH-CYT-3–4, RayBiotech Inc., Norcross, GA, USA) as previously described,[30],[86],[87]. Serum samples were collected from mice at 24 h post-CLP. The soft tissue of the hindpaw and ankle joints was carefully collected using a previously described protocol. Briefly, 0.5 g of fresh soft tissue was cut into 3 mm pieces, and mixed with 400 μL of a hypertonic solution (500 mL PBS with 4.5 g NaCl and 2× protease inhibitor cocktail) in a 10 mL syringe. Mechanical extrusion, involving 30 rapid back-and-forth movements of the plunger, was then performed. The expelled extracellular fluid was collected, immediately aliquoted, and stored at −20°C until analysis. Cell-conditioned medium was collected from PBMC cultures after 16 h of stimulation. Arrays were performed according to the manufacturer’s protocol, followed by chemiluminescent detection and densitometric quantification as previously described,[30].

water solubility = assay type: physicochemical

Question: For “54-TKVH(Nle)KSFLAFQTKT-69 [P2–1, water-soluble derivative of TN peptide P2 with Met to Norleucine and Cys to Ser substitutions]”, which “pain sensitivity (paw mechanical withdrawal threshold)” value [1] is on record?
Answer: significantly reduced CAIA-induced pain sensitivity by partially restoring paw mechanical withdrawal thresholds

Question: And the arthritis severity [2]?
Answer: dose-dependently and significantly attenuated

Question: What about the “animal survival (# of Survivors)” value (CLP-induced sepsis; Fig. 2C, P2–1 0.1 mg/kg, delayed administration (24 h and 48 h post-CLP), no asterisk) of the same substance?
Answer: 60%

Question: What about the “survival” value (CLP-induced sepsis; P2–1 0.1 mg/kg at 2 h, 20 h, 28 h, 44 h, and 52 h post-CLP, 0.1 mg/kg) of the same substance?
Answer: conferred significant protection against lethal sepsis

Question: What about the “animal survival (# of Survivors)” value (CLP-induced sepsis; P2–1 0.1 mg/kg i.p. at 2 h, 20 h, 28 h, 44 h, and 52 h post-CLP, P < 0.05 vs. control) of the same substance?
Answer: 70%

Question: And the “survival” value (CLP-induced sepsis; P2–1 1.0 mg/kg, delayed, 24 h and 48 h post-CLP, 1 mg/kg)?
Answer: provided potent protection against lethal sepsis; also recorded: rescued mice from lethal sepsis

Question: And the “animal survival (# of Survivors)” value (CLP-induced sepsis; delayed, P2–1 1.0 mg/kg i.p. at 24 h and 48 h post-CLP, P < 0.05 vs. vehicle)?
Answer: 90%

Question: And the “Ctsl mRNA upregulation (fold)” value (human PBMCs; HMGB1 + P2–1 group, three independent donors, mean ± SEM)?
Answer: 2.4 ± 0.1 fold

Question: And the “HMGB1-induced Ctsl mRNA upregulation” value (human PBMCs; P2–1 5.0 or 10.0 μg/ml)?
Answer: moderately but significantly reduced HMGB1-induced Ctsl mRNA upregulation

Question: And the “other HMGB1-induced gene expression (cytokines, chemokines) (words)” value (human PBMCs)?
Answer: did not broadly reverse HMGB1-induced transcriptional changes for most genes; also recorded: not significantly affecting the expression of other HMGB1-induced cytokines and chemokines

Question: And the “other HMGB1-induced gene expression (cytokines, chemokines) (words)” value (human PBMCs; listed as P2-1)?
Answer: does not induce

Question: And the “joint tissue MIP-1γ/CCL9/10” value [3]?
Answer: reduced levels; also recorded: significant reduction

Question: And the “joint tissue VCAM-1” value [3]?
Answer: reduced levels; also recorded: significant reduction

Question: What about the “joint tissue sTNFRI” value [3] of the same substance?
Answer: reduced levels; also recorded: significant reduction

Question: And the “joint tissue sTNFRII” value [3]?
Answer: reduced levels; also recorded: significant reduction

Question: What about the “joint tissue inflammation (array overall)” value [3] of the same substance?
Answer: significantly reduced CAIA-induced joint tissue inflammation

Question: What about the “joint tissue inflammation (array overall)” value ([3]; listed as P2-1) of the same substance?
Answer: reduction in various inflammatory cytokines and chemokines

Question: What about the water solubility (water solubility) of the same substance?
Answer: good water solubility
